Measured values as given in patent US5516790A, “Synthesis and application of alkyl-substituted dibenzofurans as antitumorigenic agents” (Texas A&M University System Technology Licensing Office, priority 1994, dated 1996).

Tests used:
Format in all cases: cell-based, human
160-kDa protein = tested on: 160-kDa protein;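 for Secreted 160-kDa protein: MCF-7 human breast cancer cells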
Description: (§1) On day 0, the media was removed and the cells were rinsed two times with PBS. […] The cells were allowed to incubate for 48 h. […] After 6 h, the media was removed, 10 μl was counted and the remaining media was used for analysis of secreted proteins.
(§2) The secreted proteins were analyzed by sodium dodecyl sulfate (SDS) polyacrylamide gel electrophoresis; 30 μl of the media was mixed with an equal volume of buffer containing SDS, β-mercaptoethanol, glycerol, Tris and bromophenol blue. The samples were heated for 2 minutes in a boiling water bath and 50 μl of each sample was loaded onto a 1.5 mm thick 12% acrylamide slab gel (containing 0.075% bisacrylamide) with a 3% stacking gel (containing 0.15% bisacrylamide). The gels were run at […] overnight and processed for fluorography (using Enhance: Dupont) and exposed to Kodak X-OMAT film for 10 days at -80° C. The molecular weights of the proteins were estimated by their mobility relative to a set of standard proteins with known molecular weights.
(§3) The incorporation of ^35 S-methionine into the 34-kDa, 52-kDa and 160-kDa proteins was estimated by scanning the films using a Zeineh Soft Laser Scanning Densitometer (model SLR-20/10) from Biomedical Instruments,Inc. The percentage of the area of the scans due to the particular protein was then compared between the experimental and control samples and the results are presented as means ± SD for at least three samples per treatment group.

34-kDa protein = tested on: 34-kDa protein;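 for Secreted 34-kDa protein: MCF-7 human breast cancer cells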
Description: as §1, §2, §3

52-kDa protein = conditions: mcf-7 cells, 48 h, 0.001 µM
Description: as §1, §2, §3

[1] = 17β-estradiol alone, 1 nM, 2880 min
[2] = Table 9, 17β-estradiol alone (1 nM), 2880 min

Question: Which “Secreted 160-kDa protein” value (160-kDa protein; [1]) does the source give for C[C@]12CC[C@@H]3c4ccc(O)cc4CC[C@H]3[C@@H]1CC[C@@H]2O [17β-Estradiol] here?
Answer: 371 ± 27.1% of the values for control

Question: And the “Protein Secretion, 160-kDa” value (160-kDa protein; [2])?
Answer: 228 % of Control

Question: And the “increase in secretion of the 160-kDa protein” value (160-kDa protein; mcf-7 cells, 48 h, 0.001 µM)?
Answer: 3.81 fold

Question: And the “Secreted 34-kDa protein” value (34-kDa protein; [1])?
Answer: 282 ± 17.6% of the values for control

Question: What about the “Protein Secretion, 34-kDa” value (34-kDa protein; [2]) of the same compound?
Answer: 201 % of Control

Question: What about the “increase in secretion of the 34-kDa protein” value (34-kDa protein; mcf-7 cells, 48 h, 0.001 µM) of the same compound?
Answer: 3.72 fold

Question: And the “increase in secretion of the 52-kDa protein” value (52-kDa protein)?
Answer: 4.97 fold
